Laboratory results published in patent US20120316203A1, “Compositions and Methods for Inhibition of Cancers” (THE OHIO STATE UNIVERSITY RESEARCH FOUNDATION, priority 2009, published 2012).
“Also recorded” adds a separate entry of the source. Values belong to the compound of their own block, whether it stands above or below them.

Columns and labels:
[1] = system: A2780 and HSMC cells; experiment: Viability of cells exposed to stand-alone N-hydroxypyrroline or nitroxide (MTT); format: cell-based, human; details: 24 h
Protocol: (§1) Cell viability was determined by a colorimetric assay using MTT. In the mitochondria of living cells, yellow MTT undergoes a reductive conversion to formazan, giving a purple color. Cells, grown to […] confluence in 75-mm flasks, were trypsinized, counted, seeded in 96-well plates with an average population of 7000 cells/well, incubated overnight, and then treated with the DAPs (H-4073, HO-3867, H4318, or HO-4200; […]) for 24 h. All experiments were done using eight replicates and repeated at least three times. Cell viability was expressed as the percentage of MIT viability of untreated cells.
To determine the role of the N-hydroxypyrroline function in the cytotoxicity, we additionally evaluated the effects of 3-CPH (a stand-alone analog of N-hydroxypyrroline) and 3-CP (a nitroxide version 3-CPH) on A27180 and HSMC cells. […] Overall the viability results implicate the diarylidenyl piperidone group in inducing cytotoxicity and the N-hydroxypyrroline group in protecting noncancerous cells.

[2] = system: HSMC; experiment: Intracellular ROS by DCF fluorescence, HSMC; format: cell-based, human; details: 10 μM, 12 h
Protocol: The ROS levels in cells treated with DAPs were determined using H2DCF-DA, a membrane-permeative fluorogenic probe. The acetate and acetoxymethyl ester groups of this probe are enzymatically cleaved inside living cells. The probe can then be oxidized by intracellular oxidants (ROS) to give a product, DCF, which emits a strong, green fluorescence (λex=504 nm; λem=529 nm). The fluorescence intensity is proportional to the level of cellular oxidants. […] The cells were further incubated in the dark for 20 min and washed with protein-free medium, and then fluorescence images were immediately captured with a Nikon Eclipse TE2000-U camera system using excitation/emission at 495/520 nm. The captured images were then analyzed using MetaMorph image analysis software.

[3] = system: A2780 cells; experiment: Intracellular ROS by DCF fluorescence, A2780; format: cell-based, human; details: 5 or 10 μM, 12 h
Protocol: The ROS levels in cells treated with DAPs were determined using H2DCF-DA, a membrane-permeative fluorogenic probe. The acetate and acetoxymethyl ester groups of this probe are enzymatically cleaved inside living cells. The probe can then be oxidized by intracellular oxidants (ROS) to give a product, DCF, which emits a strong, green fluorescence (λex=504 nm; λem=529 nm). The fluorescence intensity is proportional to the level of cellular oxidants. Cells, grown to 80% confluence on 6-mm glass coverslips, were treated with […] H-4073, HO-3867, H-4318, or HO-4200 for 12 h, followed by incubation with H2DCF-DA. The cells were further incubated in the dark for 20 min and washed with protein-free medium, and then fluorescence images were immediately captured with a Nikon Eclipse TE2000-U camera system using excitation/emission at 495/520 nm. The captured images were then analyzed using MetaMorph image analysis software.

[4] = system: A2780, A2780R, MCF-7, HCT-116, PC-3, HepG2, A549, and SCC4 human cancer cell lines; experiment: Cytotoxicity of DAPs to cancer cells (MTT); format: cell-based; details: 10 μM, 24 h
Protocol: as §1

[5] = Superoxide radical-scavenging by EPR (xanthine/xanthine oxidase, DEPMPO competition); details: 100 μM compound versus 1 mM DEPMPO
Protocol: Electron paramagnetic resonance (EPR) spectroscopy was used to quantitatively determine the relative superoxide-scavenging ability of the DAPs in comparison with DEPMPO, a known superoxide scavenger. Superoxide radicals were generated using an aerated solution of PBS (pH 7.4) containing xanthine (0.2 mM), xanthine oxidase (0.02 U/ml), and diethylenetriamine pentaacetic acid (0.1 mM). The superoxide radicals (O2^−) generated by the xanhine-xanthine oxidase reaction were reacted with DEPMPO (1 mM) to form a paramagnetic adduct (DEPMPO-OOH), which was detected using X-band (9.8 GHz) EPR spectroscopy. In separate experimental groups, […], or SOD (500 U/ml) was added to the reaction mixture. […] The generation of the DEPMPO-OOH adduct was measured at 10 min after initiation of the reaction.
Both N-hydroxypyrroline and nitroxide have antioxidant properties including SOD- and catalase-mimetic activity. Therefore, we determined the superoxide radical-scavenging ability of DAPs using a competitive reaction in the presence of DEPMPO. Superoxide radicals were generated using an aerobic solution of xanthine and xanthine oxidase and detected as DEPMPO-OOH adduct by EPR spectroscopy. The DAP compounds (100 μM) were used to compete with 1 mM DEPMPO for the superoxide ions. SOD (4.2 μM) was used as a positive control.

[6] = system: hOSE cells, HSMC, and HAEC; experiment: Cytotoxicity of DAPs to noncancerous cells (MTT); format: cell-based, human
Protocol: as §1

[7] = compared with cisplatin and curcumin; cited from earlier work
[8] = system: A2780 and other cancer cells; experiment: Metabolic conversion to nitroxide in cancer cells (EPR); format: in vitro ADME, human; details: 37° C., EPR
Source text: The N-hydroxypyrroline (—NOH) moiety is capable of undergoing a reversible one-electron oxidation to its nitroxide form (—NO; FIG. 9A), which is paramagnetic and detectable by EPR spectroscopy.

[9] = system: A2780 cells; experiment: Cell viability by MTT assay, A2780 cells; format: cell-based, human; details: 24 hours, dose series
Protocol: (§2) Cell viability was determined by a colorimetric assay using MTT. In the mitochondria of living cells, yellow MTT undergoes a reductive conversion to formazan, producing a purple color. Cells, grown to […] confluence in 75-mm flasks, were trypsinized, counted, seeded in 96-well plates with an average population of 7,000 cells per well, incubated overnight, and then treated with curcumin, H-4073, or HO-3867 for 24 hours. All experiments were done using eight replicates and, repeated at least thrice.

[10] = system: A2780 cells; experiment: Cell proliferation by clonogenic assay; format: cell-based, human; details: 24 hours treatment, 7 days growth
Protocol: Cell survival was assessed by clonogenic assay. Cells at […] confluence were trypsinized, rinsed, seeded onto 60-mm dishes (5×10^4 cells per dish), grown for 24 hours at 37° C., and treated afterward with H-4073 or HO-3867 for 24 hours. Nontreated cells served as controls. After treatment, the cells were washed twice with PBS, trypsinized, counted, and plated in 60-mm dishes in triplicate and incubated for an additional 7 days. The colonies were then stained with crystal violet (in ethyl alcohol) and counted using an automated colony counter (ColCount, Oxford Optronix). Each experiment was repeated at least five times.

[11] = system: hOSE cells; experiment: Cell viability by MTT assay, noncancerous hOSE control cells; format: cell-based, human; details: 20 μmol/L
Protocol: as §2

[12] = system: A2780R, PA-1, SKOV3, OV4, and OVCAR3 human ovarian cancer cell lines; experiment: Cell viability by MTT assay, other ovarian cancer cell lines; format: cell-based; details: 10 μmol/L; 24 h
Protocol: as §2

Structure (SMILES): CC1(C)CC(C(N)=O)C(C)(C)N1O (stereo not shown) [3-CPH, N-hydroxy-3-carbamoyl proxyl]
cell viability of A2780 and HSMC cells [1]: did not show any significant effect

amounts of ROS in HSMC compared to A2780 cells [2]: significantly lower amounts of ROS
intracellular ROS generation (DCF fluorescence) in HSMC [2]: induced significant ROS generation
Structure (SMILES): CC1(C)C=C(CN2C/C(=C\c3ccc(C(F)(F)F)cc3)C(=O)/C(=C/c3ccc(C(F)(F)F)cc3)C2)C(C)(C)N1O [HO-4200, 1-[(1-oxyl-2,2,5,5-tetramethyl-2,5-dihydro-1H-pyrrol-3-yl)-methyl]-(3E,5E)-3,5-bis(4-trifluoromethylbenzylidene)piperidin-4-one]
intracellular ROS generation (DCF fluorescence) in A2780 cells [3]: induced significant ROS generation
cell viability of human cancer cell lines [4]: substantial loss of cell viability
diminution of the DEPMPO-OOH concentration [5]: −50%
cell viability of noncancerous (healthy) human cell lines ([6]; 10 NM, 24-h incubation): significantly less toxic

Structure (SMILES): O=C1/C(=C/c2ccccc2F)CNC/C1=C\c1ccccc1F [DAP-F(o)]
IC50 [7]: lower than both cisplatin and curcumin

Structure (SMILES): CC1(C)CC(C(N)=O)C(C)(C)N1[O] (stereo not shown) [3-CP, 3-carbamoyl proxyl]
cell viability of A2780 and HSMC cells [1]: did not show any significant effect

intracellular ROS generation (DCF fluorescence) in HSMC [2]: induced significant ROS generation
EPR spectrum (nitroxide signal) after incubation with A2780 cells [8]: did not show any EPR signal
Structure (SMILES): O=C1/C(=C/c2ccc(C(F)(F)F)cc2)CNC/C1=C\c1ccc(C(F)(F)F)cc1 [H-4318, (3E,5E)-3,5-bis(4-trifluoromethylbenzylidene)piperidin-4-one]
intracellular ROS generation (DCF fluorescence) in A2780 cells [3]: induced significant ROS generation
cell viability of human cancer cell lines [4]: substantial loss of cell viability; also recorded: higher toxicity compared to HO-3867 or HO-4200
effect on the superoxide adduct level [5]: did not show any significant effect

intracellular ROS generation (DCF fluorescence) in HSMC [2]: induced significant ROS generation
EPR spectrum (nitroxide signal) after incubation with A2780 cells [8]: did not show any EPR signal
Structure (SMILES): O=C1/C(=C/c2ccc(F)cc2)CNC/C1=C\c1ccc(F)cc1 [H-4073, (3E,5E)-3,5-Bis(4-fluorobenzylidene)piperidin-4-one]
cytotoxicity, viability of A2780 cells [9]: significantly higher toxicity when compared with curcumin
intracellular ROS generation (DCF fluorescence) in A2780 cells [3]: induced significant ROS generation
number of colonies (colony-forming ability) [10]: dose-dependent reduction in the number of colonies
cytotoxicity to hOSE cells [11]: significant cytotoxicity
cell viability of human cancer cell lines [4]: substantial loss of cell viability; also recorded: higher toxicity compared to HO-3867 or HO-4200
cytotoxicity in other human ovarian cancer cell lines [12]: equally and significantly toxic
effect on the superoxide adduct level [5]: did not show any significant effect
viability of hOSE cells ([6]; same dose for both compounds): significantly reduced

Structure (SMILES): COc1cc(/C=C/C(=O)CC(=O)/C=C/c2ccc(O)c(OC)c2)ccc1O [curcumin, Curcumin, reference compound]
cytotoxicity, viability of A2780 cells [9]: dose-dependent cytotoxicity
